Measurements taken from patent publication US8691818B2, “Cyclic triazo and diazo sodium channel blockers” (University Of Greenwich, priority 2008, dated 2014).
Where two headings read alike, the source gives them in different places.

Tests used:
sodium channel = assay: [14C]guanidine flux: veratrine-evoked uptake of [14C]guanidine into rat forebrain synaptosomes (primary sodium channel assay); format: biochemical; settings: 30° for 2½ min
Summary of the method: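 Synaptosomal fraction from male Wistar rat forebrain (without cerebellum/medulla), 20-25 mg wet weight/ml. Veratrine-evoked [14C]guanidine uptake at 30° for 2½ min across a compound concentration range; IC50 from concentration-effect curves, mean±sem.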

[1] = target: T1, DiHydroFolate Reductase (DHFR) (Rattus norvegicus, UniProt Q920D2); assay: Inhibition of binding of [3H]methotrexate to rat liver homogenate supernatant; settings: for inhibition at 125 µM: read-out: [3H]mtx binding (% inhibition @ 125 μM)
T1 construct: from tissue; host or cells: rat liver homogenate supernatant
T1 sequence (Q920D2 1-187): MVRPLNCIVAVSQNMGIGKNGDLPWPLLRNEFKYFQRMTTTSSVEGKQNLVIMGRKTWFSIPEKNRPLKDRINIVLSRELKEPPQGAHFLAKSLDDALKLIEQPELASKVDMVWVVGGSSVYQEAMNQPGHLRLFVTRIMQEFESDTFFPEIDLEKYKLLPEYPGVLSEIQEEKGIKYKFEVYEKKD
Summary of the method: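 Displacement of [3H]methotrexate binding to rat liver homogenate supernatant, prepared at 4 °C in pH 6.0 phosphate buffer with 15 mM dithiothreitol. Values are mean±sem over the number of experiments shown.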

hERG [2] = target: T2, hERG (Homo sapiens, UniProt Q12809)
T2 sequence (Q12809 whole entry): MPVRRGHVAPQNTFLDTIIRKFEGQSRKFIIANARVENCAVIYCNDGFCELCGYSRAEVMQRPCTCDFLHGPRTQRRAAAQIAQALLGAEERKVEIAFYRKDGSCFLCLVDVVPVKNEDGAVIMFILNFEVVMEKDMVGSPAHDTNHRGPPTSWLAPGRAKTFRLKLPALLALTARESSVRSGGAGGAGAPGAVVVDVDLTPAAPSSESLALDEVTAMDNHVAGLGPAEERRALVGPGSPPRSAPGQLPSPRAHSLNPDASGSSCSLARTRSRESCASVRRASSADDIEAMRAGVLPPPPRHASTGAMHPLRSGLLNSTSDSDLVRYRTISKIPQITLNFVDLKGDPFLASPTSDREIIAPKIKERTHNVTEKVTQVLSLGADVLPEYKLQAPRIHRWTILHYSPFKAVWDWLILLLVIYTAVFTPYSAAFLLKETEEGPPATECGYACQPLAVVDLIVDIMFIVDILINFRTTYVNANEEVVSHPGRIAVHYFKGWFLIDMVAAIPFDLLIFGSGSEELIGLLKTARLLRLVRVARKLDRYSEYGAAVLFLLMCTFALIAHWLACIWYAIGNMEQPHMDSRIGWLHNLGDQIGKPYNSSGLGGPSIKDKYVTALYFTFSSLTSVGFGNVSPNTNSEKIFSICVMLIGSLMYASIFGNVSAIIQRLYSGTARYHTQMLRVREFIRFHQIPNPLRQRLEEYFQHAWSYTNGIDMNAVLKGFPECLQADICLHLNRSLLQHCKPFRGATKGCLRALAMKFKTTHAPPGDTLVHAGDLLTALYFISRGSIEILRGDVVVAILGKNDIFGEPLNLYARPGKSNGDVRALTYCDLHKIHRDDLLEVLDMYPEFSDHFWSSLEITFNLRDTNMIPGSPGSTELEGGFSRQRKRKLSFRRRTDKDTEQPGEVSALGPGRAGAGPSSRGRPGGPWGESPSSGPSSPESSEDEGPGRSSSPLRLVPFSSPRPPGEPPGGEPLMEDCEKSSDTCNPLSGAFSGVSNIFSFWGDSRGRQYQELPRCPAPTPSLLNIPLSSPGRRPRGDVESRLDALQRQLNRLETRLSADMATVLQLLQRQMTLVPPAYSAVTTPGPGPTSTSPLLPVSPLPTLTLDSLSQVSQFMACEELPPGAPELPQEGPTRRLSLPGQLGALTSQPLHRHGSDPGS

Rat microsome stability = format: in vitro ADME; settings: 1 μM, rat liver microsomes
Description: Compounds were sent to BioFocus for measurement of their stability@1 μM concentration following incubation with rat liver microsomes for 40 minutes@37°.

hERG [3] = target: T2, hERG; assay: hERG: inhibition of binding of [3H]astemizole to HEK-293 cells expressing human recombinant hERG; settings: for inhibition at 10 µM: human, probe [3H]astemizole
L-Type Calcium Channels = assay: L-type calcium channels: inhibition of binding of [3H]nitrendipine to rat cerebral cortex membranes; settings: for L-type Ca2+ % inhibition @ 10 μM: [3H]nitrendipine binding; for IC50: read-out: L-type Ca2+ IC50 (μM) (extrapolated from 10 μM inh'n), extrapolated assuming binding slope 1.0
[4] = test system: 0.4 mm slices of rat hippocampus; assay: tissue or blood; format: cell-based; settings: for Emax at 30 µM: Rattus norvegicus, read-out: % protection (v 1 μM TTX) (mean ± sem) (no. of expt's)
Sodium Channel, Site 2 = format: binding, Wistar Rat; settings: for IC50: read-out: [3H]BTX-B binding Extrapolated IC50
hERG [5] = target: T2, hERG; assay: in vitro
[6] = 30 μM, iodoacetate 400 μM insult, slice ATP

| Compound | IC50 (sodium channel) [µM] | Microsome stability % metabolized (40 min incubation 37°) (Rat microsome stability) [%] | inhibition at 125 µM ([1]; 125 μM) [%] | IC50 (hERG [3]) [µM] | inhibition at 10 µM (hERG [3]) [%] | L-type Ca2+ % inhibition @ 10 μM (L-Type Calcium Channels) [%] | IC50 (L-Type Calcium Channels) [µM] | Emax at 30 µM [4, 6] [%] | melting point | also measured |
| --- | --- | --- | --- | --- | --- | --- | --- | --- | --- | --- |
| 6-Adamantyl-3,5-diamino-1,2,4-triazine [CEN-83] | 40.8 |  |  |  |  |  |  |  |  | [3H]mtx binding (% inhibition @ 125 μM) ([1]; 125 μM): −5%; IC50 (hERG [2]): 52 µM |
| N=c1nc(N)c(-c2ccccc2Oc2ccccc2)nn1CC(F)(F)F [CEN-98, 5(3)-Amino-6-(2-phenoxyphenyl)-2,3(2,5)-dihydro-3(5)-imino-2-(1,1,1-trifluoroethyl)-1,2,4-triazine] | 8.9 | 6.0 | 41 | 46 | 18 | −18 | > 190 | 11 |  |  |
| Cn1nc(-c2cc(C(F)(F)F)cc(C(F)(F)F)c2)c(N)nc1=N [CEN-99, 5(3)-Amino-6-[3,5-(bis-trifluoromethyl)phenyl]-2,3(2,5)-dihydro-3(5)-imino-2-methyl-1,2,4-triazine methanesulfonate] | 135 | 0.0 | -1 | 34 | 23 |  |  |  |  |  |
| N=c1nc(N)c(-c2cccc(Cl)c2Cl)nn1CC(F)(F)F [CEN-67, 5(3)-Amino-6-(2,3-dichlorophenyl)-2,3(2,5)-dihydro-3(5)-imino-2-(2,2,2-trifluoroethyl)-1,2,4-triazine] | 4.3 | 0.5 | 11 | 57 | 15 | −16 | > 190 | 3 |  |  |
| Nc1nnc(-c2cc(OCC(F)(F)F)ccc2OCC(F)(F)F)c(N)n1 [CEN-140, 3,5-Diamino-6-[2,5-bis(2,2,2-trifluoroethoxy)phenyl]-1,2,4-triazine] | 229 |  | 3 |  |  |  |  | -11 |  |  |
| Nc1nnc(C2(c3ccc(Cl)cc3)CCC2)c(N)n1 [CEN-152, 3,5-Diamino-6-[1-(4-chlorophenyl)-1-cyclobuty]-1,2,4-triazine] | 479 |  | 1 |  |  |  |  | -10 |  |  |
| Nc1nnc(-c2cccc(Cl)c2Cl)c(N)n1 [CEN-1, Lamotrigine, reference compound] | 219 | 0.5 |  |  |  |  |  | 41 |  | IC50 (Sodium Channel, Site 2): > 200 µM |
| Nc1nnc(-c2cc(C(F)(F)F)cc(C(F)(F)F)c2)c(N)n1 [CEN-92, 3,5-Diamino-6-(3,5-bistrifluoromethylphenyl)-1,2,4-triazine] |  | 0.0 |  | > 200 | 4 | 3 | > 190 | 32 |  | IC50 (sodium channel; listed as 92): 144 µM; [3H]mtx binding (% inhibition @ 125 μM) ([1]; 125 μM, listed as 92, 125 µM): 15% |
| Nc1cnc(-c2cc(Cl)cc(Cl)c2Cl)c(N)n1 [CEN-86, 2,6-Diamino-3-(2,3,5-trichlorophenyl)pyrazine] | 14.1 |  | -5 | > 200 | 1 | 9 | 101 | 98 |  |  |
| O=C1NC(=O)C(c2ccccc2)(c2ccccc2)N1 [DPH, reference compound] |  |  |  |  |  |  |  |  |  | % protection (v 1 μM TTX) (mean ± sem) (no. of expt's) [4, 6]: 48% |
| Nc1nnc(-c2ccccc2OCc2ccccc2)c(N)n1 [CEN-160, 3,5-Diamino-6-(2-Benzyloxyphenyl)-1,2,4-triazine] | 295 |  | -11 | > 200 | 0 |  |  | 0 |  |  |
| Nc1ncc(-c2cc(Cl)cc(Cl)c2Cl)c(N)n1 [CEN-47, 2,4-Diamino-5-(2,3,5-trichlorophenyl)pyrimidine, reference compound] | 13.2 |  |  | 35 | 22 |  |  | 98 |  |  |
| NC1=N[C@H](O)[C@H]2[C@H]3O[C@]4(O)O[C@@H]([C@@H](O)[C@@]2(N1)[C@@H]4O)[C@]3(O)CO [TTX, tetrodotoxin, reference compound] |  |  |  |  |  |  |  |  |  | % protection (v 1 μM TTX) [4]: 100% |
| Nc1nnc(-c2sc(Cl)c(Cl)c2Cl)c(N)n1 [CEN-79, 3,5-Diamino-6-[2-(3,4,5 trichlorothienyl)]-1,2,4-triazine] | 209 | 0.0 | -1 | > 200 | 3 | 17 | 48.8 |  | 263 to 265 °C |  |
| Nc1nnc(-c2cccc(Oc3ccccc3)c2)c(N)n1 [CEN-84, 3,5-Diamino-6-(3-phenoxphenyl)-1,2,4-triazine] | 43.7 | 33.0 | -4 | 101 | 9 | 7 | 133 |  | 152 to 153 °C |  |
| Nc1nnc(-c2ccc3ccccc3c2)c(N)n1 [CEN-73, 3,5-Diamino-6-(2-naphthyl)-1,2,4-triazine] | 81.2 | 62.5 | 5 | > 200 | 3 | 8 | 115 |  | 215 to 216 °C |  |
| CN1CCN(c2ncc(-c3cc(Cl)cc(Cl)c3Cl)c(N)n2)CC1 [Sipatrigine, reference compound] |  |  |  |  |  |  |  | 58 |  |  |
| Nc1nnc2c(n1)-c1cccc3cccc-2c13 [CEN-155] | 34 |  |  | 35 |  |  |  |  |  | inhibition at 125 µM [1]: -6%; inhibition at 10 µM (hERG [5]): 22% |
| Nc1nnc(C(c2ccccc2)c2ccccc2)c(N)n1 [CEN-130, 3,5-Diamino-6-(diphenylmethy)-1,2,4-triazine] | 20.4 |  | 2 | > 200 | -2 |  |  | 39 |  |  |
| Nc1cnc(-c2cccc(Cl)c2Cl)c(N)n1 [CEN-87, 2,6-Diamino-3-(2,3-dichlorophenyl)pyrazine] | 288 |  | -5 | > 200 | 3 | 7 | 133 |  | 150 to 153 °C |  |
| Nc1nnc(C(c2ccccc2)C2CCCC2)c(N)n1 (stereo not shown) [CEN-163, 3,5-Diamino-6-(1-cyclopentyl-1-phenylmethy)-1,2,4-triazine] | 8 |  | 13 | 81 | 11 |  |  | 56 |  |  |
| CCOc1ccc2ccccc2c1-c1nnc(N)nc1N [CEN-110] | 135 | 61.5 | -23 | > 200 | -12 |  |  |  | 178 to 180 °C |  |
| N=c1nc(N)c(-c2cc(Cl)cc(Cl)c2Cl)nn1CC(F)F [CEN-85, 5(3)-Amino-6-(2,3,5-trichlorophenyl)-2,3(2,5)-dihydro-3(5)-imino-2-(2,2-difluoroethyl)-1,2,4-triazine] | 3.6 |  | -5 | 16 | 39 | −15 | > 190 |  | 168 to 170 °C (dec.) |  |
| Nc1nnc(-c2cc(F)c(F)cc2Cl)c(N)n1 [CEN-207, 3,5-Diamino-6-(2-chloro-4,5-difluorophenyl)-1,2,4-triazine] |  |  |  |  |  |  |  |  | 240 to 242 °C | [3H]BTX-B binding % inhibition (@ 10 μM) (Sodium Channel, Site 2): 30%; IC50 (Sodium Channel, Site 2): 23 µM |
| CCc1nc(N)nc(N)c1-c1ccc(Cl)cc1 [CEN-48, 2,4-Diamino-5-(4-chlorophenyl)-6-ethyl-pyrimidine, reference compound] | 5.8 |  |  | 46 | 18 | −1 | > 190 |  |  |  |
| Nc1nnc(-c2cc(F)c(F)c(F)c2F)c(N)n1 [CEN-208, 3,5-Diamino-6-(2,3,4,5-tetrafluorophenyl)-1,2,4-triazine] |  |  |  |  |  |  |  |  | 233 to 235 °C | [3H]BTX-B binding % inhibition (@ 10 μM) (Sodium Channel, Site 2): 31%; IC50 (Sodium Channel, Site 2): 22 µM |
